Measured values published in publication PMC2809336, “Antidepressant Interactions with the NMDA NR1-1b Subunit” (Journal of Biophysics, 2008).
“Also recorded” adds a separate entry of the source.

Legend:
Type in all cases: binding
NMDA NR1-1b S1S2 domain [1] = target: T1, NMDA NR1-1b S1S2 domain (Rattus norvegicus, UniProt P35439); assay: Stern-Volmer analysis, acrylamide quenching of tryptophan fluorescence; details: acrylamide 16.3 to 113.9 mM, 5.29 μM NR1-1b S1S2 premixed with antidepressant; apo 1.61
T1 construct: (His)8-TSG-LVPRG(thrombin cut site)-S1(394-544)-GT-S2(663-800); (His)8-TSG-LVPRG (His8 tag with thrombin cut site) (N); made in house; host or cells: E. coli Origami B(DE3)
T1 sequence (P35439 394-544): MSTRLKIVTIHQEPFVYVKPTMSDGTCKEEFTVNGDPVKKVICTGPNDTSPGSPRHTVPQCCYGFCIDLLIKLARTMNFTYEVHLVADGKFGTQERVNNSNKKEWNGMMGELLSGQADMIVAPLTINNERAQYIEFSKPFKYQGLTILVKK
T1 sequence (P35439 663-800): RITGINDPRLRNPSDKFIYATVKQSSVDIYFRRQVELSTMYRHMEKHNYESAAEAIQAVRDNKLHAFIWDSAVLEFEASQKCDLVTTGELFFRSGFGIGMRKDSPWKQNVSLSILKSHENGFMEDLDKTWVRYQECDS
From the text: Plots of (F 0/F) −1 versus acrylamide concentration were constructed.

NMDA NR1-1b S1S2 domain [2] = target: T1, NMDA NR1-1b S1S2 domain; assay: Intrinsic tryptophan fluorescence quenching and λ max of emission; details: for Binding to NR1-1b S1S2 by intrinsic tryptophan fluorescence: desipramine, trimipramine, imipramine 137 μM, maprotiline 3.18 mM, nortriptyline 2.08 mM, paroxetine 3.75 mM, sertraline 1.88 mM, fluvoxamine 2.81 mM; for λ max of the NR1-1b drug bound complex: excitation 290 nm, 25°C, apo 326.24 nm, drug at final quenching concentration; for Binding to NR1-1b S1S2 in intrinsic and extrinsic fluorescence assays: concentrations as high as 5.21 mM
Description: (§1) Intrinsic fluorescence studies were performed in a Cary Eclipse fluorometer at 25°C. All emission scans were acquired from 300 to 400 nm upon excitation at 290 nm, with 10 nm excitation and emission slit widths in a 10 mm-path-length cell. Excitation was performed at 290 nm to minimize interference from both tyrosine residues in the NMDA NR1-1b S1S2 domain as well as the aromatic antidepressants being studied. Before data acquisition, samples were incubated for thirty seconds in the sample holder at 25°C. […] Thus, data was reported without a buffer subtraction.
(§2) All antidepressants were solubilized in 100% methanol to the highest attainable concentrations. To account for any effects methanol had on fluorescence intensity, protein spectra with methanol were collected, allowing direct comparison between samples with and without antidepressant. Each data set consisted of at least three independent emission spectra of identically prepared samples. The data is reported with error determined at the 95% confidence level.
The fluorescence intensity of the NR1-1b S1S2 domain was determined in the presence and absence of eachantidepressant with the appropriate blank subtraction. […] For all samples, the final concentration of methanol was kept at 1.8%.

NMDA NR1-1b S1S2 domain [3] = target: T1, NMDA NR1-1b S1S2 domain; assay: Extrinsic ANS fluorescence; details: ANS 1 : 1 with 5.29 μM NR1-1b S1S2, excitation 380 nm; drug concentrations as in Figure 4
Description: Extrinsic fluorescence studies were performed in a Cary Ec-lipse fluorometer at 25°C. All emission scans were acquired from 400 to 600 nm after excitation at 380 nm with 20 nm slit widths for emission and excitation in a 10 mm-path-length cell. Before data acquisition, samples were incubated for thirty seconds in the sample holder at 25°C. Blanks were collected both for the antidepressants and the NR1-1b S1S2 domain. Three emission spectra of identicallyprepared samples were averaged for each plot. 8-Anilino-1-naphthalenesulfonic acid (ANS, TCI America), in a 1 : 1 molar ratio, was added to 5.29 μM of the NR1-1b S1S2 domain premixed with antidepressant (at final concentrations as above for intrinsic quenching studies in addition to the SSRIs fluoxetine (8.62 μM) and fluvoxamine (2.81 mM) and the SNRI venlafaxine (29.07 μM)). As with all intrinsic assays, total methanol concentration was kept at 1.8%. Plots of intensity versus wavelength were constructed from averaged emission spectra.

NMDA NR1-1b S1S2 domain [4] = target: T1, NMDA NR1-1b S1S2 domain; assay: Kd determination by intrinsic tryptophan fluorescence (double reciprocal, Benesi-Hildebrand plot); details: 5.29 μM NR1-1b S1S2, buffer 3 pH 6.5, 25°C, error at 95% confidence level
Description: as §1
as §2, with “Protein samples were at a final concentration of 5.29 μM in buffer 3 (10 mM MES, pH 6.5, 25 mM NaCl, 1 mM glycine). All” for “All”
A double reciprocal plot was used to determine Kd, which derives from the Benesi-Hildebrand relationship, provided there is a 1 : 1 binding stoichiometry. […] When 1/ΔF is plotted against 1/[L], a linear relationship exists. The intercept on the x-axis is − K d.. […]

| Compound | K sv (NMDA NR1-1b S1S2 domain [1]) [M⁻¹] | Binding to NR1-1b S1S2 by intrinsic tryptophan fluorescence (NMDA NR1-1b S1S2 domain [2]) | λ max of the NR1-1b drug bound complex (NMDA NR1-1b S1S2 domain [2]) [nm] | ANS emission spectrum of the NR1-1b S1S2 complex versus ANS bound to apo S1S2 (binding) (NMDA NR1-1b S1S2 domain [3]) | Kd (NMDA NR1-1b S1S2 domain [4]) [µM] | λ max of the NR1-1b drug bound complex (NMDA NR1-1b S1S2 domain [2]; listed as Maprotiline) [nm] | Change of tryptophan fluorescence emission upon binding (NMDA NR1-1b S1S2 domain [2]; intensity versus apo NR1-1b S1S2) | Binding to NR1-1b S1S2 in intrinsic and extrinsic fluorescence assays (NMDA NR1-1b S1S2 domain [2]) | Binding to NR1-1b S1S2 in intrinsic and extrinsic fluorescence assays (NMDA NR1-1b S1S2 domain [2]; listed as Citalopram) |
| --- | --- | --- | --- | --- | --- | --- | --- | --- | --- |
| COc1ccc(C(CN(C)C)C2(O)CCCCC2)cc1 (centres unmarked) [venlafaxine] |  | did not; also recorded: neither of which showed binding |  | confirmed the binding |  |  |  |  |  |
| CNCCC(Oc1ccc(C(F)(F)F)cc1)c1ccccc1 (centres unmarked) [fluoxetine] |  | neither of which showed binding |  | confirmed the binding |  |  |  |  |  |
| CN(C)CCCC1(c2ccc(F)cc2)OCc2cc(C#N)ccc21 (centres unmarked) [citalopram] |  | did not |  |  |  |  |  | no binding | no evidence of binding |

Continued, values first:

| K sv (NMDA NR1-1b S1S2 domain [1]) [M⁻¹] | Binding to NR1-1b S1S2 by intrinsic tryptophan fluorescence (NMDA NR1-1b S1S2 domain [2]) | λ max of the NR1-1b drug bound complex (NMDA NR1-1b S1S2 domain [2]) [nm] | ANS emission spectrum of the NR1-1b S1S2 complex versus ANS bound to apo S1S2 (binding) (NMDA NR1-1b S1S2 domain [3]) | Kd (NMDA NR1-1b S1S2 domain [4]) [µM] | λ max of the NR1-1b drug bound complex (NMDA NR1-1b S1S2 domain [2]; listed as Maprotiline) [nm] | Change of tryptophan fluorescence emission upon binding (NMDA NR1-1b S1S2 domain [2]; intensity versus apo NR1-1b S1S2) | Binding to NR1-1b S1S2 in intrinsic and extrinsic fluorescence assays (NMDA NR1-1b S1S2 domain [2]) | Binding to NR1-1b S1S2 in intrinsic and extrinsic fluorescence assays (NMDA NR1-1b S1S2 domain [2]; listed as Citalopram) | Compound |
| --- | --- | --- | --- | --- | --- | --- | --- | --- | --- |
| 2.67 | binding | 326.77 |  |  |  |  |  |  | CNCCCN1c2ccccc2CCc2ccccc21 [desipramine] |
| 3.06 | binding | 328.3 | significantly different |  |  |  |  |  | Fc1ccc([C@@H]2CCNC[C@H]2COc2ccc3c(c2)OCO3)cc1 [paroxetine] |
| 3.02 | binding | 327.27 | significantly different | 1090 ± 240 |  |  |  |  | CC(CN(C)C)CN1c2ccccc2CCc2ccccc21 (centres unmarked) [trimipramine] |
| 5.92 | binding | 322.04 ± 1.83 | significantly different |  | 322.04 | increases, rather than quenches |  |  | CNCCCC12CCC(c3ccccc31)c1ccccc12 [maprotiline] |
| 3.77 | binding | 328.57 | significantly different |  |  |  |  |  | COCCCC/C(=N\OCCN)c1ccc(C(F)(F)F)cc1 [fluvoxamine] |
